Measured values published in US20250282827A1, “LIPIDATED POLYMYXIN ANALOGUES” (priority 2021, published 2025).
Values after ≈ are worked out from the molar mass of the structure shown. Positions of bridges follow the written chain, without caps; N, C: chain ends. Non-standard residues stand in square brackets, D forms with d. Residues, ends and D or L forms follow the SMILES beside them. *: point of attachment. Ethyl(2-propionyloxy) = CCC(=O)OCC*; Ethyl(2-OPiv) = CC(C)(C)C(=O)OCC*; hCys = N[C@@H](CCS)C(=O)O; Dab = NCC[C@H](N)C(=O)O; X4 = CCCCCCCC(=O)OCC*; X1 = CCCCCC(=O)OCC*; X13 = CCCCC(=O)OCC*; Mpa = O=C(O)CCS

Experiments:
[1] = test system: E. coli ATCC 25922; assay type: cell-based, Escherichia coli; settings: ATCC 25922
From the text: (§1) All 81 compounds prepared in Examples 2 and 3 underwent screening against a panel of Gram-negative bacterium to assess their ability to inhibit bacterial growth. […] The median value is presented.

[2] = test system: A. baumannii ATCC 19606; assay type: cell-based, Acinetobacter baumannii; settings: ATCC 19606
From the text: as §1

[3] = test system: P. aeruginosa ATCC 27853; assay type: cell-based, Pseudomonas aeruginosa; settings: ATCC 27853
From the text: as §1

[4] = test system: K. pneumoniae ATCC 33495; assay type: cell-based, Klebsiella pneumoniae; settings: ATCC 33495
From the text: as §1

[5] = test system: K. pneumoniae ATCC 700603; assay type: cell-based, Klebsiella pneumoniae; settings: ATCC 700603
From the text: as §1

[6] = test system: K. pneumoniae ATCC MS6671; assay type: cell-based, Klebsiella pneumoniae; settings: ATCC MS6671
From the text: as §1

[7] = test system: E. coli ATCC MS8345; assay type: cell-based, Escherichia coli; settings: ATCC MS8345
From the text: as §1
Expansion of the polymyxin macrocycle by substituting […]) offered little advantage in antimicrobial activity but was generally well tolerated although for A. baumanni and P. aeruginosa this was detrimental.

| MIC E. coli ATCC 25922 [1] [µg/mL] | MIC A. baumannii ATCC 19606 [2] [µg/mL] | MIC P. aeruginosa ATCC 27853 [3] [µg/mL] | MIC K. pneumoniae ATCC 33495 [4] [µg/mL] | MIC K. pneumoniae ATCC 700603 [5] [µg/mL] | MIC K. pneumoniae ATCC MS6671 [6] [µg/mL] | MIC E. coli ATCC MS8345 [7] [µg/mL] | Structure (SMILES) |
| --- | --- | --- | --- | --- | --- | --- | --- |
| 0.5 (≈ 0.4 µM) | 32 (≈ 25.6 µM) | 2 (≈ 1.6 µM) | 0.5 (≈ 0.4 µM) | 1 (≈ 0.799 µM) | >32 | >32 | CCC(=O)OCCSCCC(=O)N[C@@H](CCN)C(=O)N[C@H](C(=O)N[C@@H](CCN)C(=O)N[C@H]1CCNC(=O)[C@H]([C@@H](C)O)NC(=O)[C@H](CCN)NC(=O)[C@H](CCN)NC(=O)[C@H](CC(C)C)NC(=O)[C@@H](Cc2ccccc2)NC(=O)[C@H](CCN)NC1=O)[C@@H](C)O [Compound 59] ([Mpa](Ethyl(2-propionyloxy))[Dab]T[Dab][Dab][Dab][dF]L[Dab][Dab]T; lactam 5-C) |
| 0.25 (≈ 0.195 µM) | 2 (≈ 1.56 µM) | 0.5 (≈ 0.39 µM) | 0.25 (≈ 0.195 µM) | 0.25 to 0.5 | >32 | 16 (≈ 12.5 µM) | CCC(=O)OCCSCC[C@H](N)C(=O)N[C@@H](CCN)C(=O)N[C@H](C(=O)N[C@@H](CCN)C(=O)N[C@H]1CCNC(=O)[C@H]([C@@H](C)O)NC(=O)[C@H](CCN)NC(=O)[C@H](CCN)NC(=O)[C@H](CC(C)C)NC(=O)[C@@H](Cc2ccccc2)NC(=O)[C@H](CCN)NC1=O)[C@@H](C)O [Compound 60] (H-[hCys](Ethyl(2-propionyloxy))[Dab]T[Dab][Dab][Dab][dF]L[Dab][Dab]T; lactam 5-C) |
| 4 (≈ 3.35 µM) | >16 | 4 (≈ 3.35 µM) | 2 (≈ 1.67 µM) | 4 (≈ 3.35 µM) | >32 | >32 | CCCCC(=O)OCCSC[C@@H](N)C(=O)N[C@H](C(=O)N[C@@H](CCN)C(=O)N[C@H]1CCNC(=O)[C@H]([C@@H](C)O)NC(=O)[C@H](CCN)NC(=O)[C@H](CCN)NC(=O)[C@H](CC(C)C)NC(=O)[C@@H](Cc2ccccc2)NC(=O)[C@H](CCN)NC1=O)[C@@H](C)O [Compound 90] (H-[dC](X13)T[Dab][Dab][Dab][dF]L[Dab][Dab]T; lactam 4-C) |
| 1 (≈ 0.827 µM) | 4 (≈ 3.31 µM) | 2 (≈ 1.65 µM) | 1 (≈ 0.827 µM) | 2 (≈ 1.65 µM) | >32 | 16 (≈ 13.2 µM) | CCCCCC(=O)OCCSC[C@@H](N)C(=O)N[C@H](C(=O)N[C@@H](CCN)C(=O)N[C@H]1CCNC(=O)[C@H]([C@@H](C)O)NC(=O)[C@H](CCN)NC(=O)[C@H](CCN)NC(=O)[C@H](CC(C)C)NC(=O)[C@@H](Cc2ccccc2)NC(=O)[C@H](CCN)NC1=O)[C@@H](C)O [Compound 91] (H-[dC](X1)T[Dab][Dab][Dab][dF]L[Dab][Dab]T; lactam 4-C) |
| 1 (≈ 0.809 µM) | 2 (≈ 1.62 µM) | 2 (≈ 1.62 µM) | 2 (≈ 1.62 µM) | 2 (≈ 1.62 µM) | >32 | 16 (≈ 12.9 µM) | CCCCCCCC(=O)OCCSC[C@@H](N)C(=O)N[C@H](C(=O)N[C@@H](CCN)C(=O)N[C@H]1CCNC(=O)[C@H]([C@@H](C)O)NC(=O)[C@H](CCN)NC(=O)[C@H](CCN)NC(=O)[C@H](CC(C)C)NC(=O)[C@@H](Cc2ccccc2)NC(=O)[C@H](CCN)NC1=O)[C@@H](C)O [Compound 92] (H-[dC](X4)T[Dab][Dab][Dab][dF]L[Dab][Dab]T; lactam 4-C) |
| 1 (≈ 0.837 µM) | 4 (≈ 3.35 µM) | 2 (≈ 1.67 µM) | 1 (≈ 0.837 µM) | 2 (≈ 1.67 µM) | >32 | 32 (≈ 26.8 µM) | CC(C)C[C@@H]1NC(=O)[C@@H](Cc2ccccc2)NC(=O)[C@H](CCN)NC(=O)[C@@H](NC(=O)[C@H](CCN)NC(=O)[C@@H](NC(=O)[C@H](N)CSCCOC(=O)C(C)(C)C)[C@@H](C)O)CCNC(=O)[C@H]([C@@H](C)O)NC(=O)[C@H](CCN)NC(=O)[C@H](CCN)NC1=O [Compound 93] (H-[dC](Ethyl(2-OPiv))T[Dab][Dab][Dab][dF]L[Dab][Dab]T; lactam 4-C) |
